Experiments:
K-562 = assay: Inhibition of cells growth by colorimetric (SRB) assay, K-562; conditions: SRB assay, 48 hours exposure
Summary of the method: (§1)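 Human tumour cells seeded at 5×10^3/well in RPMI 1640 10% FBS, attached 18 h, then exposed 48 h to samples at 10 to 10^−8 μg/ml in DMSO/EtOH/PBS (0.5:0.5:99). Growth read by SRB staining after TCA fixation, OD 490 nm, triplicate wells; GI, TGI and LC derived.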

A-549 = assay: Inhibition of cells growth by colorimetric (SRB) assay, A-549; conditions: SRB assay, 48 hours exposure
Summary of the method: as §1

SK-MEL-28 = assay: Inhibition of cells growth by colorimetric (SRB) assay, SK-MEL-28; conditions: SRB assay, 48 hours exposure
Summary of the method: as §1

HT-29 = assay: Inhibition of cells growth by colorimetric (SRB) assay, HT-29; conditions: SRB assay, 48 hours exposure
Summary of the method: as §1

LoVo = assay: Inhibition of cells growth by colorimetric (SRB) assay, LoVo; conditions: SRB assay, 48 hours exposure
Summary of the method: as §1

LoVo-Dox = assay: Inhibition of cells growth by colorimetric (SRB) assay, LoVo-Dox; conditions: SRB assay, 48 hours exposure
Summary of the method: as §1

DU-145 = assay: Inhibition of cells growth by colorimetric (SRB) assay, DU-145; conditions: SRB assay, 48 hours exposure
Summary of the method: as §1

LNCaP = assay: Inhibition of cells growth by colorimetric (SRB) assay, LNCaP; conditions: SRB assay, 48 hours exposure
Summary of the method: as §1

SK-BR-3 = assay: Inhibition of cells growth by colorimetric (SRB) assay, SK-BR-3; conditions: SRB assay, 48 hours exposure
Summary of the method: as §1

IGROV-1 = assay: Inhibition of cells growth by colorimetric (SRB) assay, IGROV-1; conditions: SRB assay, 48 hours exposure
Summary of the method: as §1

IGROV-ET = assay: Inhibition of cells growth by colorimetric (SRB) assay, IGROV-ET; conditions: SRB assay, 48 hours exposure
Summary of the method: as §1

SK-OV-3 = assay: Inhibition of cells growth by colorimetric (SRB) assay, SK-OV-3; conditions: SRB assay, 48 hours exposure
Summary of the method: as §1

PANC-1 = assay: Inhibition of cells growth by colorimetric (SRB) assay, PANC-1; conditions: SRB assay, 48 hours exposure
Summary of the method: as §1

[1] = Inhibition of cells growth by colorimetric (SRB) assay, HMEC1; conditions: human, HMEC1 cells, LC50 H-MEC-1, SRB assay, 48 hours exposure
HMEC1 = assay: as above

## Cl.Nc1nccc2c(-c3ccncn3)c3c(O)ccnc3n12 [Compound 101]
K-562
  TGI K-562: 1.79E−05
K-562; read-out: GI50 K-562
  GI50: 5.55 µM
K-562; read-out: LC50 K-562
  CC50: ≥ 33.9 µM
A-549
  TGI A-549: 1.09E−05
A-549; read-out: GI50 A-549
  GI50: 2.39 µM
A-549; read-out: LC50 A-549
  CC50: ≥ 33.9 µM
SK-MEL-28
  TGI MEL-28: 1.07E−05
SK-MEL-28; read-out: GI50 MEL-28
  GI50: 5.22 µM
SK-MEL-28; read-out: LC50 MEL-28
  CC50: 21.9 µM
HT-29
  TGI HT-29: 2.35E−05
HT-29; read-out: GI50 HT-29
  GI50: 8.87 µM
HT-29; read-out: LC50 HT-29
  CC50: ≥ 33.9 µM
LoVo
  TGI LOVO: 1.41E−05
LoVo; read-out: GI50 LOVO
  GI50: 3.52 µM
LoVo; read-out: LC50 LOVO
  CC50: ≥ 33.9 µM
LoVo-Dox
  TGI LOVO-DOX: 1.59E−05
LoVo-Dox; read-out: GI50 LOVO-DOX
  GI50: 2.35 µM
LoVo-Dox; read-out: LC50 LOVO-DOX
  CC50: ≥ 33.9 µM
DU-145
  TGI DU-145: 1.80E−06
DU-145; read-out: GI50 DU-145
  GI50: 0.118 µM
DU-145; read-out: LC50 DU-145
  CC50: ≥ 30.3 µM
LNCaP
  TGI LN-caP: 1.32E−07
LNCaP; read-out: GI50 LN-caP
  GI50: 0.0224 µM
LNCaP; read-out: LC50 LN-caP
  CC50: 4.74 µM
SK-BR-3
  TGI SK-BR-3: 8.77E−07
SK-BR-3; read-out: GI50 SK-BR-3
  GI50: 0.128 µM
SK-BR-3; read-out: LC50 SK-BR-3
  CC50: 10.2 µM
IGROV-1
  TGI IGROV: 1.06E−05
IGROV-1; read-out: GI50 IGROV
  GI50: 3.79 µM
IGROV-1; read-out: LC50 IGROV
  CC50: 29.6 µM
IGROV-ET
  TGI IGROV-ET: 2.08E−05
IGROV-ET; read-out: GI50 IGROV-ET
  GI50: 6.6 µM
IGROV-ET; read-out: LC50 IGROV-ET
  CC50: ≥ 33.9 µM
SK-OV-3
  TGI SKOV-3: 1.41E−05
SK-OV-3; read-out: GI50 SKOV-3
  GI50: 4.44 µM
SK-OV-3; read-out: LC50 SKOV-3
  CC50: ≥ 33.9 µM
PANC-1
  TGI PANC-1: 4.88E−06
PANC-1; read-out: GI50 PANC-1
  GI50: 0.149 µM
PANC-1; read-out: LC50 PANC-1
  CC50: ≥ 33.9 µM
[1]
  CC50 at 48 h: 0.0444 µM
HMEC1; Homo sapiens, HMEC-1, 48 h, read-out: GI50 H-MEC-1, SRB assay, 48 hours exposure
  GI50: 0.00677 µM
HMEC1; SRB assay, 48 hours exposure, in M (unit assumed)
  TGI H-MEC-1: 1.57E−08

Reference: patent publication US7772241B2, “Variolin derivatives and their use as antitumor agents” (Pharma Mar S.A., priority 2001, dated 2010)
